Experiments:
[1] = system: phospho-S6RP (Ser 235/236) in RBE cells; test: Cellular Proliferation Protocol (cellular phospho-S6RP HTRF), RBE cells; assay type: cell-based; details: 6 hours treatment, RBE or SNU-1079 cells, cell line not given
Outline: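 Phospho-S6RP (Ser 235/236) was quantified by HTRF in lysed RBE cells (2000/well) after a 6 h treatment at 37° C, with overnight antibody incubation at room temperature. IC50 values came from 4-parameter dose-response fits relative to DMSO vehicle.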

RBE cells = test: Cell Viability Protocol (CellTiterGlo), RBE cells; assay type: cell-based; details: RBE or SNU-1079 cells, 72 or 120 hour, cell line and time not given
Outline: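 After 72 h or 120 h compound exposure at 37° C, viability was read by CellTiterGlo as % of DMSO vehicle, with IC50 fitted by a 4-parameter curve. Cells had been seeded at 1200/well in 10% FBS RPMI 1640 and allowed 24 h before dosing.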

SRC = SRC (Homo sapiens, UniProt P12931); test: SRC Biochemical Assay Protocol (microfluidic mobility shift assay, FLPeptide4 substrate)
Outline: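 Mobility-shift readout of phosphorylated FLPeptide4 (1.5 μM) after 90 min kinase reaction with 50 μM ATP and 0.26 nM SRC in pH 7.4 HEPES buffer. Compounds, tested 0.0017–100 μM, were preincubated 30 min with enzyme and peptide; IC50 from 4-parameter logistic fit versus neutral controls.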

Compound | IC50 [1] [µM] | IC50 (RBE cells) [µM] | IC50 (SRC) [µM] | IC50 ([1]; 6 h) [µM]
C=CC(=O)N1CCC(N2CC(C#Cc3c(-c4cccc5c4OCO5)c4c(N)ncnc4n3C(C)C)C2)C(O)C1 (stereo not drawn) [II-108] | ≤ 0.01 | ≤ 0.01 | ≤ 0.01 | 
C=CS(=O)(=O)N1CC[C@@H](N2CC(C#Cc3c(-c4ccc(Oc5ccccc5)cc4)c4c(N)ncnc4n3C)C2)[C@@H](O)C1 [II-280] |  | ≤ 0.01 | ≤ 0.01 | 0.01 to 1
COc1cc(Oc2cccc(C)n2)ccc1-c1c(C#C[C@@H]2[C@H]3CN(C(=O)/C=C/CN(C)C)C[C@@H]23)n(C)c2ncnc(N)c12 [II-226, (E)-1-((1R,5S,6s)-6-((4-amino-5-(2-methoxy-4-((6-methylpyridin-2-yl)oxy)phenyl)-7-methyl-7H-pyrrolo[2,3-d]pyrimidin-6-yl)ethynyl)-3-azabicyclo[3.1.0]hexan-3-yl)-4-(dimethylamino) but-2-en-1-one] |  | 0.01 to 1 | 0.01 to 1 | 0.01 to 1
C=CC(=O)N1CCC(N2CC(C#Cc3c(-c4ccc(Oc5ccccc5)c(Cl)n4)c4c(N)ncnc4n3C)C2)CC1 [II-314] | 0.01 to 1 | 0.01 to 1 | > 10 | 
C=CC(=O)N1C[C@@H]2[C@@H](C#Cc3c(-c4ccc(Oc5ccccc5)cc4)c4c(N)ncnc4n3C3CCOC3)[C@@H]2C1 (stereo partly drawn) [II-209, 1-((1R,5S,6s)-6-((4-amino-5-(4-phenoxyphenyl)-7-(tetrahydrofuran-3-yl)-7H-pyrrolo[2,3-d]pyrimidin-6-yl)ethynyl)-3-aza-bicyclo[3.1.0]hexan-3-yl)prop-2-en-1-one] |  | ≤ 0.01 | ≤ 0.01 | ≤ 0.01
Cn1c(C#CC2CCCN(C(=O)/C=C/CN3CC(F)C3)CC2)c(-c2ccc(Oc3ccccc3)cc2)c2c(N)ncnc21 (stereo not drawn) [II-184, (E)-1-(4-((4-amino-7-methyl-5-(4-phenoxyphenyl)-7H-pyrrolo[2,3-d]pyrimidin-6-yl)ethynyl)azepan-1-yl)-4-(3-fluoroazetidin-1-yl)but-2-en-1-one] |  | 1 to 10 | 0.01 to 1 | 1 to 10
C=CC(=O)N1CCC(N2CC(C#Cc3c(-c4ccc(Cl)c(C)c4)c4c(N)ncnc4n3C)C2)CC1 [II-94] | 0.01 to 1 | 0.01 to 1 | 0.01 to 1 | 
C=CC(=O)N1CC[C@H](N2CC(C#Cc3c(-c4ccc(Cl)c(C)c4)c4c(N)ncnc4n3C(C)C)C2)[C@H](O)C1 [II-112] | 0.01 to 1 | 0.01 to 1 | ≤ 0.01 | 
1-((1R,5S,6s)-6- ((4-amino-5-(2- methoxy-4-((6- methylpyridin-2- yl)oxy)phenyl)-7- (2-methoxyethyl)- 7H-pyrrolo[2,3- d]pyrimidin-6- yl)ethynyl)-3- azabicyclo[3.1.0] hexan-3-yl)prop-2- en-1-one [II-275] | 0.01 to 1 | 0.01 to 1 | 0.01 to 1 | 
C=CC(=O)N1C[C@@H]2[C@@H](C#Cc3c(-c4ccc(Oc5cccc(C)n5)cc4)c4c(N)ncnc4n3C)[C@@H]2C1 [II-206, 1-[(1R,5S,6S)-6-[2-(4-amino-7-methyl-5-[4-[(6-methylpyridin-2-yl)oxy]phenyl]-7H-pyrrolo[2,3-d]pyrimidin-6-yl)ethynyl]-3-azabicyclo[3.1.0]hexan-3-yl]prop-2-en-1-one] |  | ≤ 0.01 | 0.01 to 1 | ≤ 0.01
C=CC(=O)N1C[C@@H]2[C@@H](C#Cc3c(-c4ccccc4OC)c4c(N)ncnc4n3C)[C@@H]2C1 [II-269] |  | 0.01 to 1 | 0.01 to 1 | 0.01 to 1
C=CC(=O)N1CCC(N2CC(C#Cc3c(-c4ccc(Cl)c(OC)c4)c4c(N)ncnc4n3C)C2)C[C@H]1CO (stereo partly drawn) [II-256] |  | 0.01 to 1 | 0.01 to 1 | 0.01 to 1
C=CS(=O)(=O)N1CCC(N2CC(C#Cc3c(-c4ccc(Oc5ccccc5)c(OC)c4)c4c(N)ncnc4n3C)C2)CC1 [II-83] | 0.01 to 1 | 0.01 to 1 | ≤ 0.01 | 

From patent US20250154154A1 (Relay Binney Street, 2nd Floor, priority 2020, published 2025)
